In paper PMC5107132 (European journal of pharmacology, 2016):

Tests used:
α2β3γ2 GABAA receptors [1] = molecular target: T1, α2β3γ2 GABAA receptors (Rattus norvegicus, UniProt P18508+P23576); experiment: Two-electrode voltage clamp in Xenopus oocytes, α2β3γ2; assay type: cell-based; conditions: 200 mg/kg dose
α3β3γ2 GABAA receptors [2] = molecular target: T2, α3β3γ2 GABAA receptors (Rattus norvegicus, UniProt P18508+P20236); experiment: Two-electrode voltage clamp in Xenopus oocytes, α3β3γ2; assay type: cell-based; conditions: 200 mg/kg dose
α5β3γ2 GABAA receptors [3] = molecular target: T3, α5β3γ2 GABAA receptors (Rattus norvegicus, UniProt P18508+P19969); experiment: Two-electrode voltage clamp in Xenopus oocytes, α5β3γ2; assay type: cell-based
[4] = In vitro hydrolytic stability study in rat plasma; assay type: in vitro ADME; conditions: for % remaining in plasma (in vitro metabolic stability) / Total plasma concentration (in vitro metabolic stability): rat plasma 37 °C
[5] = Plasma protein and brain tissue binding; assay type: in vitro ADME, rat; conditions: rapid equilibrium dialysis
Wistar rats [6] = experiment: Rotarod test; assay type: in vivo, rat; conditions: 200 mg/kg i.p.; vs. 180 s with control animals; n = 4
α1β3γ2S GABAA receptors = α1β3γ2S GABAA receptors (Rattus norvegicus, UniProt P18508+P62813); conditions: read-out: Ki at α1β3γ2 GABAA receptors; ref Savić et al., 2010; cited from earlier work
α2β3γ2S GABAA receptors = α2β3γ2S GABAA receptors (Rattus norvegicus, UniProt P18508+P23576); conditions: read-out: Ki at α2β3γ2 GABAA receptors; ref Savić et al., 2010; cited from earlier work
α3β3γ2S GABAA receptors = α3β3γ2S GABAA receptors (Rattus norvegicus, UniProt P18508+P20236); conditions: read-out: Ki at α3β3γ2 GABAA receptors; ref Savić et al., 2010; cited from earlier work
α5β3γ2S GABAA receptors [7] = molecular target: T4, α5β3γ2S GABAA receptors (Rattus norvegicus, UniProt P18508+P19969); conditions: read-out: Ki at α5β3γ2 GABAA receptors; ref Savić et al., 2010; cited from earlier work
κ opioid receptor (KOR) = κ opioid receptor (KOR) (Homo sapiens, UniProt P41145); conditions: read-out: Affinity at KOR; ref B. Roth et al., NIMH Psychoactive Drug Screening Program; cited from earlier work
α1β3γ2 GABAA receptors = α1β3γ2 GABAA receptors (Rattus norvegicus, UniProt P18508+P62813); conditions: 100 nM; ref Savić et al., 2010; cited from earlier work
α2β3γ2 GABAA receptors [8] = molecular target: T1, α2β3γ2 GABAA receptors; conditions: 100 nM; ref Savić et al., 2010; cited from earlier work
α3β3γ2 GABAA receptors [9] = molecular target: T2, α3β3γ2 GABAA receptors; conditions: 100 nM; ref Savić et al., 2010; cited from earlier work
α5β3γ2 GABAA receptors [10] = molecular target: T3, α5β3γ2 GABAA receptors; conditions: 100 nM; ref Savić et al., 2010; cited from earlier work
α5β3γ2S GABAA receptors [11] = molecular target: T4, α5β3γ2S GABAA receptors; experiment: 3H-flunitrazepam competition binding, α5β3γ2S; conditions: ratio of Ki values
[12] = Pharmacokinetic study, plasma and brain concentrations after i.p. injection; conditions: rat, 20 min
Wistar rats [13] = conditions: ref Savić et al., 2008; cited from earlier work

In the case of C#Cc1ccc2c(c1)C(c1ccccc1F)=N[C@H](C)c1c(C(=O)OCC)ncn1-2 [SH-053-2′F-R-CH3], the “Estimated potentiation at α2GABAARs” value (α2β3γ2 GABAA receptors [1]) is reported as 171%, the “Estimated potentiation at α3GABAARs” value (α3β3γ2 GABAA receptors [2]) is reported as 155% and the “Estimated potentiation of GABA-mediated currents at α5GABAARs” value (α5β3γ2 GABAA receptors [3]; approximated from estimated free rat brain concentration, 200 mg/kg i.p.) is reported as 280%. For the same compound, the “Concentration needed to elicit 300% potentiation at α5GABAARs” value (α5β3γ2 GABAA receptors [3]; read from concentration-response curves of Savić et al., 2010) was “above 300 nM”, the “% remaining in plasma (in vitro metabolic stability)” value (shortened to “% remaining in plasma”) ([4]; 0 min) was 100% and the “Total plasma concentration (in vitro metabolic stability)” value (“Total plasma concentration” for short) ([4]; 0 min) was 0.5556 µM. The “% remaining in plasma” value ([4]; 30 min) was 76.64%, the “Total plasma concentration” value ([4]; 30 min) was 0.4258 ± 0.0042 µM and the “% remaining in plasma” value ([4]; 60 min) was 62.77%. For the same compound, the “Total plasma concentration” value ([4]; 60 min) was 0.3487 ± 0.0040 µM, the “% remaining in plasma” value ([4]; 120 min) was 38.27% and the “Total plasma concentration” value ([4]; 120 min) was 0.2126 ± 0.0036 µM. For the same compound, the “% remaining in plasma” value ([4]; 240 min) was 5.24%, the “Total plasma concentration” value ([4]; 240 min) was 0.0291 ± 0.0023 µM and the “In vitro metabolic stability during incubation in rat plasma” value ([4]; rat, plasma) was “less stable”. The “Free fraction in brain tissue” value ([5]; rat brain tissue) was 3.87%, the “Free fraction in plasma” value ([5]; rat plasma) was 68.55% and the “Rotarod, time remaining on the rod” value (Wistar rats [6]) was 154 ± 26 s. The Ki (α1β3γ2S GABAA receptors) was 759 nM, the Ki (α2β3γ2S GABAA receptors) was 948 nM and the Ki (α3β3γ2S GABAA receptors) was 769 nM. The Ki (α5β3γ2S GABAA receptors [7]) was 95.2 nM, the Ki (κ opioid receptor (KOR)) was 240 nM and the “% of control current, α1β3γ2” value (α1β3γ2 GABAA receptors) was 111 ± 2%. For the same compound, the “% of control current, α2β3γ2” value (α2β3γ2 GABAA receptors [8]) was 124 ± 9%, the “% of control current, α3β3γ2” value (α3β3γ2 GABAA receptors [9]) was 125 ± 8% and the “% of control current, α5β3γ2” value (α5β3γ2 GABAA receptors [10]) was 183 ± 7%. The “Selectivity in binding to α5GABAARs compared to α1-containing GABAA receptors” value (α5β3γ2S GABAA receptors [11]) was 8 fold, the “Selectivity in binding to α5GABAARs compared to α2-containing GABAA receptors” value (α5β3γ2S GABAA receptors [11]) was 10 fold and the “Brain free (estimated) concentration” value ([12]; 10 mg/kg i.p.) was 29.10 ± 5.14 nmol/kg. For the same compound, the Brain total concentration ([12]; 10 mg/kg i.p.) was 752.00 ± 132.84 nmol/kg, the “Plasma free (estimated) concentration” value ([12]; 10 mg/kg i.p.) was 278.60 ± 52.39 nmol/L and the Plasma total concentration ([12]; 10 mg/kg i.p.) was 406.43 ± 76.45 nmol/L. For the same compound, the “Brain free (estimated) concentration” value ([12]; 20 mg/kg i.p.) was 38.85 ± 3.39 nmol/kg, the Brain total concentration ([12]; 20 mg/kg i.p.) was 1003.57 ± 87.55 nmol/kg and the “Plasma free (estimated) concentration” value ([12]; 20 mg/kg i.p.) was 288.32 ± 47.99 nmol/L. The Plasma total concentration ([12]; 20 mg/kg i.p.) was 420.63 ± 70.01 nmol/L, the “Brain free (estimated) concentration” value ([12]; 30 mg/kg i.p.) was 64.40 ± 14.64 nmol/kg and the Brain total concentration ([12]; 30 mg/kg i.p.) was 1663.84 ± 378.29 nmol/kg. For the same compound, the “Plasma free (estimated) concentration” value ([12]; 30 mg/kg i.p.) was 380.78 ± 46.73 nmol/L, the Plasma total concentration ([12]; 30 mg/kg i.p.) was 555.51 ± 68.18 nmol/L and the “Brain free (estimated) concentration” value ([12]; 150 mg/kg i.p.) was 147.74 ± 37.36 nmol/kg. For the same compound, the Brain total concentration ([12]; 150 mg/kg i.p.) was 3816.79 ± 965.21 nmol/kg, the “Plasma free (estimated) concentration” value ([12]; 150 mg/kg i.p.) was 1100.14 ± 186.36 nmol/L and the Plasma total concentration ([12]; 150 mg/kg i.p.) was 1604.96 ± 271.88 nmol/L. The “Brain free (estimated) concentration” value ([12]; 200 mg/kg i.p.) was 324.16 ± 89.88 nmol/kg, the Brain total concentration ([12]; 200 mg/kg i.p.) was 8374.25 ± 2322.03 nmol/kg and the “Plasma free (estimated) concentration” value ([12]; 200 mg/kg i.p.) was 1876.71 ± 196.63 nmol/L. For the same compound, the Plasma total concentration ([12]; 200 mg/kg i.p.) was 2737.87 ± 286.86 nmol/L.
For C#Cc1ccc2c(c1)C(c1ccccc1F)=N[C@@H](C)c1c(C(=O)OCC)ncn1-2 [SH-053-2′F-S-CH3], the “Median incapacitating dose (rotarod)” value (Wistar rats [13]) is given as 219 mg/kg.
